Assay results: the supplement of paper PMC13380429

Tests used:
Calu-3 [1] = experiment: cell viability relative to DMSO; higher = less toxic; settings: 72 h
HepG2 [2] = experiment: as above; settings: 72 h
Vero E6 [3] = experiment: as above; settings: 72 h
Caco-2 [4] = experiment: as above; settings: 72 h
U2OS [5] = experiment: as above; settings: 72 h
A549-ACE2 [6] = experiment: phospholipidosis EC50; higher = less potent phospholipidosis inducer
Calu-3 [7] = experiment: drug sensitivity score (DSS) for viability; higher = more toxic; extreme values may be limits of the assay; settings: 72 h
HepG2 [8] = experiment: as above; settings: 72 h
Vero E6 [9] = experiment: as above; settings: 72 h
Caco-2 [10] = experiment: as above; settings: 72 h
U2OS [11] = experiment: as above; settings: 72 h
[12] = system: A549-ACE2 infected with SARS-CoV-2; experiment: cell count relative to DMSO; higher = less toxic; settings: 24 h
[13] = system: A549-ACE2 infected with SARS-CoV-2; experiment: morphology score (similarity to uninfected cells); higher = more like uninfected cells; settings: 24 h
[14] = system: A549-ACE2 infected with SARS-CoV-2; experiment: SARS-CoV-2 infection rate relative to DMSO; higher = more infection; settings: 24 h
A549-ACE2 [15] = experiment: drug-induced phospholipidosis relative to tamoxifen; higher = more phospholipidosis
Calu-3 [16] = experiment: relative viability EC50 (midpoint between 100% and the lowest measured viability); higher = less toxic; settings: 72 h
Vero E6 [17] = experiment: as above; settings: 72 h
HepG2 [18] = experiment: as above; settings: 72 h
Caco-2 [19] = experiment: as above; settings: 72 h
U2OS [20] = experiment: as above; settings: 72 h

O=C(NCCN1CCC2(CC1)C(=O)NCN2c1cccc(F)c1)c1ccc2ccccc2c1
Settings | SARS-CoV-2 infection rate [%] | cell count [%] | cell viability [%] | morphology score | phospholipidosis EC50 [µM]
A549-ACE2 [6], 24 h | – | – | – | – | 2.21
A549-ACE2 [6], 48 h | – | – | – | – | 3.21
A549-ACE2 [6], 72 h | – | – | – | – | 4.55
Caco-2 [4], 1 nM | – | – | 102 | – | –
Caco-2 [4], 10 nM | – | – | 93.5 | – | –
Caco-2 [4], 100 nM | – | – | 95.2 | – | –
Caco-2 [4], 1000 nM | – | – | 90.8 | – | –
Caco-2 [4], 10000 nM | – | – | 52.4 | – | –
Calu-3 [1], 1 nM | – | – | 100 | – | –
Calu-3 [1], 10 nM | – | – | 102 | – | –
Calu-3 [1], 100 nM | – | – | 94.8 | – | –
Calu-3 [1], 1000 nM | – | – | 95 | – | –
Calu-3 [1], 10000 nM | – | – | 11.2 | – | –
HepG2 [2], 1 nM | – | – | 104 | – | –
HepG2 [2], 10 nM | – | – | 106 | – | –
HepG2 [2], 100 nM | – | – | 102 | – | –
HepG2 [2], 1000 nM | – | – | 85.9 | – | –
HepG2 [2], 10000 nM | – | – | 54.5 | – | –
U2OS [5], 1 nM | – | – | 101 | – | –
U2OS [5], 10 nM | – | – | 104 | – | –
U2OS [5], 100 nM | – | – | 97.7 | – | –
U2OS [5], 1000 nM | – | – | 100 | – | –
U2OS [5], 10000 nM | – | – | 71 | – | –
Vero E6 [3], 1 nM | – | – | 103 | – | –
Vero E6 [3], 10 nM | – | – | 95.6 | – | –
Vero E6 [3], 100 nM | – | – | 97.4 | – | –
Vero E6 [3], 1000 nM | – | – | 96.4 | – | –
Vero E6 [3], 10000 nM | – | – | 84.8 | – | –
[12], 0.3 µM | – | 96 | – | – | –
[12], 3 µM | – | 115 | – | – | –
[12], 10 µM | – | 93 | – | – | –
[12], 30 µM | – | 3 | – | – | –
[13], 0.3 µM | – | – | – | -0.21 | –
[13], 3 µM | – | – | – | 0.7 | –
[13], 10 µM | – | – | – | 0.39 | –
[13], 30 µM | – | – | – | 0.06 | –
[14], 0.3 µM | 107 | – | – | – | –
[14], 3 µM | 35 | – | – | – | –
[14], 10 µM | 20 | – | – | – | –
[14], 30 µM | 48 | – | – | – | –

Settings | drug sensitivity score | relative viability EC50 [µM]
Caco-2 [10] | 4 | –
Calu-3 [7] | 5.7 | –
Calu-3 [16] | – | 2.72
HepG2 [8] | 4.4 | –
U2OS [11] | 1.2 | –
Vero E6 [9] | 0.5 | –
Vero E6 [17] | – | > 10

drug-induced phospholipidosis [%], A549-ACE2 [15]
Settings | 0.3 µM | 0.833333 µM | 3.33333 µM | 6.66667 µM | 10 µM | 30 µM
24 h | 1.19 | 9.12 | 93.1 | 112 | 127 | 127
48 h | 2.88 | 7.95 | 76.2 | 107 | 140 | 134
72 h | 2.25 | 6.48 | 52.3 | 100 | 120 | –

Nc1ncnc2c1c(-c1cccc(OCc3ccccc3)c1)cn2C1CC(CN2CCCC2)C1 (stereo in doubt) [NVP-ADW742]
Settings | SARS-CoV-2 infection rate [%] | cell count [%] | cell viability [%] | morphology score | phospholipidosis EC50 [µM]
A549-ACE2 [6], 24 h | – | – | – | – | 5.36
A549-ACE2 [6], 72 h | – | – | – | – | 3.26
Caco-2 [4], 1 nM | – | – | 98.9 | – | –
Caco-2 [4], 10 nM | – | – | 96.1 | – | –
Caco-2 [4], 100 nM | – | – | 98.4 | – | –
Caco-2 [4], 1000 nM | – | – | 74.6 | – | –
Caco-2 [4], 10000 nM | – | – | 34.1 | – | –
Calu-3 [1], 1 nM | – | – | 99.2 | – | –
Calu-3 [1], 10 nM | – | – | 93.1 | – | –
Calu-3 [1], 100 nM | – | – | 107 | – | –
Calu-3 [1], 1000 nM | – | – | 102 | – | –
Calu-3 [1], 10000 nM | – | – | 44.2 | – | –
HepG2 [2], 1 nM | – | – | 89.3 | – | –
HepG2 [2], 10 nM | – | – | 97.4 | – | –
HepG2 [2], 100 nM | – | – | 101 | – | –
HepG2 [2], 1000 nM | – | – | 69.9 | – | –
HepG2 [2], 10000 nM | – | – | 23.2 | – | –
U2OS [5], 1 nM | – | – | 99.1 | – | –
U2OS [5], 10 nM | – | – | 98 | – | –
U2OS [5], 100 nM | – | – | 99 | – | –
U2OS [5], 1000 nM | – | – | 88.9 | – | –
U2OS [5], 10000 nM | – | – | 43.7 | – | –
Vero E6 [3], 1 nM | – | – | 99.9 | – | –
Vero E6 [3], 10 nM | – | – | 95.6 | – | –
Vero E6 [3], 100 nM | – | – | 97.6 | – | –
Vero E6 [3], 1000 nM | – | – | 98.1 | – | –
Vero E6 [3], 10000 nM | – | – | 58.2 | – | –
[12], 0.1 µM | – | 104 | – | – | –
[12], 0.3 µM | – | 93 | – | – | –
[12], 1 µM | – | 82 | – | – | –
[12], 3 µM | – | 101 | – | – | –
[13], 0.1 µM | – | – | – | 0.14 | –
[13], 0.3 µM | – | – | – | 0.2 | –
[13], 1 µM | – | – | – | 0.46 | –
[13], 3 µM | – | – | – | 0.75 | –
[14], 0.1 µM | 98 | – | – | – | –
[14], 0.3 µM | 94 | – | – | – | –
[14], 1 µM | 75 | – | – | – | –
[14], 3 µM | 30 | – | – | – | –

Settings | drug sensitivity score | relative viability EC50 [µM]
Caco-2 [10] | 7 | –
Caco-2 [19] | – | 1.23
Calu-3 [7] | 2.9 | –
Calu-3 [16] | – | 3.32
HepG2 [8] | 8.3 | –
HepG2 [18] | – | 1.19
U2OS [11] | 4.9 | –
U2OS [20] | – | 1.75
Vero E6 [9] | 2.4 | –

drug-induced phospholipidosis [%], A549-ACE2 [15]
Settings | 0.3 µM | 0.833333 µM | 3.33333 µM | 6.66667 µM | 10 µM | 30 µM
24 h | 8.61 | 13.3 | 31.4 | 113 | 145 | 158
48 h | 8.35 | 9.24 | 33.7 | 54.9 | – | –
72 h | 7.79 | 5.46 | 31.5 | 52.2 | – | –

CN1CCN(S(=O)(=O)c2ccc(-c3cnc(N)c(C(=O)Nc4cccnc4)n3)cc2)CC1 [AZD2858]
Settings | SARS-CoV-2 infection rate, [14] [%] | cell count, [12] [%] | cell viability, Caco-2 [4] [%] | cell viability, Calu-3 [1] [%] | cell viability, HepG2 [2] [%] | cell viability, U2OS [5] [%] | cell viability, Vero E6 [3] [%] | morphology score, [13]
1 nM | – | – | 96.7 | 98.2 | 104 | 92.4 | 98.5 | –
10 nM | – | – | 96.7 | 102 | 104 | 99.5 | 93.1 | –
100 nM | – | – | 102 | 99.4 | 101 | 96.6 | 100 | –
0.1 µM | 103 | 100 | – | – | – | – | – | -0.23
0.3 µM | 100 | 96 | – | – | – | – | – | -0.27
1000 nM | – | – | 108 | 114 | 97.3 | 100 | 102 | –
1 µM | 86 | 107 | – | – | – | – | – | -0.14
3 µM | 95 | 97 | – | – | – | – | – | -0.15
10000 nM | – | – | 82.3 | 85.7 | 70.4 | 73.8 | 78.8 | –

Settings | drug sensitivity score | relative viability EC50 [µM]
Caco-2 [10] | 0.2 | –
Caco-2 [19] | – | > 10
Calu-3 [7] | 0 | –
Calu-3 [16] | – | > 10
HepG2 [8] | 1.7 | –
U2OS [11] | 1 | –
Vero E6 [9] | 0.6 | –
Vero E6 [17] | – | > 10

drug-induced phospholipidosis [%], A549-ACE2 [15]
Settings | 0.3 µM | 0.833333 µM | 3.33333 µM | 6.66667 µM | 10 µM | 30 µM
24 h | -4.95 | -12.2 | -21.2 | -22.8 | -21.3 | -18.1
48 h | 1.83 | -4.03 | -14.2 | – | – | –
72 h | 1.77 | -0.315 | -6.78 | – | – | –
